Consider two molecules from patent US20090252687A1, “ASYMMETRIC FLUORO-SUBSTITUTED POLYMETHINE DYES” (priority 2006, published 2009).

A short description of the series: Photostability of the fluorescence signal. The conditions noted are these: 1:1 methanol:water; Karl Storz Xenon 175 light source at 100% intensity for 30 min; fraction of dark control. The class given is physicochemical. As to the method: In a further example the photostability of the fluorescence signal was measured. The photostability of Compound 3 (the fluorinated Cy3F pyrylium of Example 19) was studied in comparison with a non-fluorinated analogue, Cy3 pyrylium (Compound C)
The dyes were dissolved in a 1:1 mixture of methanol:water to give an absorbance reading of 1Au at the dyes lambda max and then diluted 20 times for fluorescence measurements. The samples were exposed to light with a Karl Storz Xenon 175 light source at 100% intensity for 30 min. The cuvette was kept in a water bath while exposed to light, to avoid heating. Fluorescence measurements were made on Cary Eclipse (Varian) fluorescence spectrophotometer 1 cm cuvette, ex/em slit 5 nm

The structures appear in SMILES notation.

Turning to `CN(C)c1ccc2c(c1)OC(C(C)(C)C)=C/C2=C\C=C\C1=[N+](CCCCCC(=O)O)c2c(F)c(F)c(F)c(F)c2C1(C)CCCCS(=O)(=O)[O-]` (centres unmarked) [Compound 3, 4-[2-{(1E,3E)-3-[2-tert-butyl-7-(dimethylamino)-4H-chromen-4-ylidene]prop-1-enyl}-1-(5-carboxypentyl)-4,5,6,7-tetrafluoro-3-methyl-3H-indolium-3-yl]butane-1-sulfonate], the “max fluorescence intensity relative to the dark control (photostability)” value is listed as 0.94.

For the molecule `CN(C)c1ccc2c(c1)OC(C(C)(C)C)=C/C2=C\C=C\C1=[N+](CCCCCC(=O)O)c2ccc(S(=O)(=O)[O-])cc2C1(C)C` [Compound C], the “max fluorescence intensity relative to the dark control (photostability)” value was 0.79.
